Columns and labels:
[1] = test system: subjects with pulmonary hypertension (WHO group I PAH, WHO group III PH); experiment: Right heart catheterization: right heart/pulmonary artery hemodynamics, thermodilution cardiac output, PVR and SVR after inhaled NO and nebulized nitrite; format: in vivo, human
Protocol: A total of 6 subjects with a confirmed diagnosis of pulmonary hypertension and meeting all inclusion/exclusion criteria were enrolled in the study which entailed a single right heart catheterization. The study population consisted of subjects with WHO group I PAH (n=3) and subjects with WHO group III PH (n=3) which received the dose escalation paradigm:
(§1) During the study right heart/pulmonary artery hemodynamics were measured as well as noninvasive systemic blood pressure monitoring and simultaneous RV echocardiography. Subjects were tested for the changes in pulmonary vascular resistance (PVR) measured by right heart catheterization and using thermodilution cardiac output measurement at time zero, at times 15, 30 and 45 minutes after completion of each nebulization dose.
Following right heart catheterization, the patient was stabilized for 20 minutes. Baseline blood collections and hemodynamic measurements were performed, followed by treatment with 40 ppm inhaled NO gas for […] with repeat hemodynamic measurements performed.
After stopping inhaled NO gas, a single dose of sildenafil was given if patients were on background sildenafil therapy at previously prescribed doses. 45-minutes after sildenafil dose baseline hemodynamics were performed.
Subjects were monitored carefully during and after the study treatment.
The study was conducted at the 3rd FL Catheterization Laboratory at Presbyterian Hospital of the University of Pittsburgh Medical Center (UPMC). Baseline vasoreactivity was recorded after Inhaled NO at 40 ppm for […]. […] Subjects were instructed to breathe as calmly, and deeply as possible until no more mist was formed in the nebulizer chamber. Subjects were also instructed to hold their breath for approximately 10 seconds after inhalation to allow the study drug to reach deep into the lungs.

[2] = test system: subjects with pulmonary hypertension; experiment: Systemic blood pressure (noninvasive) and heart rate monitoring during the study
Protocol: as §1
Subjects were monitored closely for changes in blood pressure during the study. […] Subjects were continued to be monitored closely every 10 minutes for 2 hours.

[3] = test system: subjects with pulmonary hypertension; experiment: Oxygen saturation by pulse oximeter and methemoglobin by continuous percutaneous co-oximetry; format: in vivo, human; parameters: Syst O2sat: unit not given here
Protocol: Oxygen saturation measured by pulse oximeter and methemoglobin levels monitored by continuous percutaneous co-oximetry prior to dose administration and through 4 hours post-dose were monitored closely.

[4] = 40 ppm inhaled NO, some patients (non-responsive to inhaled NO)

For nitric oxide [iNO, reference compound], the “reduction in PCWP from baseline” value [1, 4] was “did not show a meaningful reduction”, the “reduction in RA from baseline” value [1, 4] was “did not show a meaningful reduction” and the CI ([1]; Patient 1, 40 ppm inhaled NO) was 2.54. It also gave a CO ([1]; Patient 1, 40 ppm inhaled NO) of 4.91, a PA sat ([1]; Patient 1, 40 ppm inhaled NO) of 68 and a PAD ([1]; Patient 1, 40 ppm inhaled NO) of 25. The PAS ([1]; Patient 1, 40 ppm inhaled NO) was 73, the PCWP ([1]; Patient 1, 40 ppm inhaled NO) was 14 and the PVR ([1]; Patient 1, 40 ppm inhaled NO) was 5.50. For the same substance, the PVR/SVR ([1]; Patient 1, 40 ppm inhaled NO) was 0.40, the RA ([1]; Patient 1, 40 ppm inhaled NO) was 12 and the SVR ([1]; Patient 1, 40 ppm inhaled NO) was 13.78. The TPR ([1]; Patient 1, 40 ppm inhaled NO) was 8.35, the mPAP ([1]; Patient 1, 40 ppm inhaled NO) was 41.01 and the CI ([1]; Patient 2, 40 ppm inhaled NO) was 3.47. For the same substance, the CO ([1]; Patient 2, 40 ppm inhaled NO) was 6.7, the PA sat ([1]; Patient 2, 40 ppm inhaled NO) was 68 and the PAD ([1]; Patient 2, 40 ppm inhaled NO) was 13. It also gave a PAS ([1]; Patient 2, 40 ppm inhaled NO) of 45, a PCWP ([1]; Patient 2, 40 ppm inhaled NO) of 10 and a PVR ([1]; Patient 2, 40 ppm inhaled NO) of 2.04. For the same substance, the PVR/SVR ([1]; Patient 2, 40 ppm inhaled NO) was 0.17, the RA ([1]; Patient 2, 40 ppm inhaled NO) was 7 and the SVR ([1]; Patient 2, 40 ppm inhaled NO) was 11.99. The TPR ([1]; Patient 2, 40 ppm inhaled NO) was 3.53, the mPAP ([1]; Patient 2, 40 ppm inhaled NO) was 23.67 and the CI ([1]; Patient 3, 40 ppm inhaled NO) was 3.14. It also gave a CO ([1]; Patient 3, 40 ppm inhaled NO) of 6.53, a PAD ([1]; Patient 3, 40 ppm inhaled NO) of 20 and a PAS ([1]; Patient 3, 40 ppm inhaled NO) of 69. For the same substance, the PCWP ([1]; Patient 3, 40 ppm inhaled NO) was 14, the PVR ([1]; Patient 3, 40 ppm inhaled NO) was 3.42 and the PVR/SVR ([1]; Patient 3, 40 ppm inhaled NO) was 0.35. For the same substance, the RA ([1]; Patient 3, 40 ppm inhaled NO) was 11, the SVR ([1]; Patient 3, 40 ppm inhaled NO) was 9.65 and the TPR ([1]; Patient 3, 40 ppm inhaled NO) was 5.56. For the same substance, the mPAP ([1]; Patient 3, 40 ppm inhaled NO) was 36.34, the CI ([1]; Patient 4, 40 ppm inhaled NO) was 2.98 and the CO ([1]; Patient 4, 40 ppm inhaled NO) was 5.21. For the same substance, the PAD ([1]; Patient 4, 40 ppm inhaled NO) was 21, the PAS ([1]; Patient 4, 40 ppm inhaled NO) was 63 and the PCWP ([1]; Patient 4, 40 ppm inhaled NO) was 7. The PVR ([1]; Patient 4, 40 ppm inhaled NO) was 5.38, the PVR/SVR ([1]; Patient 4, 40 ppm inhaled NO) was 0.29 and the RA ([1]; Patient 4, 40 ppm inhaled NO) was 3. The SVR ([1]; Patient 4, 40 ppm inhaled NO) was 18.30, the TPR ([1]; Patient 4, 40 ppm inhaled NO) was 6.72 and the mPAP ([1]; Patient 4, 40 ppm inhaled NO) was 35.00. It also gave a CI ([1]; Patient 5, 40 ppm inhaled NO) of 2.85, a CO ([1]; Patient 5, 40 ppm inhaled NO) of 5.05 and a PAD ([1]; Patient 5, 40 ppm inhaled NO) of 17. For the same substance, the PAS ([1]; Patient 5, 40 ppm inhaled NO) was 64, the PCWP ([1]; Patient 5, 40 ppm inhaled NO) was 14 and the PVR ([1]; Patient 5, 40 ppm inhaled NO) was 3.70. For the same substance, the PVR/SVR ([1]; Patient 5, 40 ppm inhaled NO) was 0.30, the RA ([1]; Patient 5, 40 ppm inhaled NO) was 5 and the RVD ([1]; Patient 5, 40 ppm inhaled NO) was 5. It also gave an RVS ([1]; Patient 5, 40 ppm inhaled NO) of 66, an SVR ([1]; Patient 5, 40 ppm inhaled NO) of 12.15 and a TPR ([1]; Patient 5, 40 ppm inhaled NO) of 6.47. For the same substance, the mPAP ([1]; Patient 5, 40 ppm inhaled NO) was 32.67, the CI ([1]; Patient 6, iNO) was 3.1658 and the CO ([1]; Patient 6, iNO) was 6.3. The PAD ([1]; Patient 6, iNO) was 27, the PAS ([1]; Patient 6, iNO) was 58 and the PCWP ([1]; Patient 6, iNO) was 13. The PVR ([1]; Patient 6, iNO) was 4.3924, the PVR/SVR ([1]; Patient 6, iNO) was 0.3132 and the RA ([1]; Patient 6, iNO) was 12. It also gave an RVD ([1]; Patient 6, iNO) of 12, an RVS ([1]; Patient 6, iNO) of 58 and an SVR ([1]; Patient 6, iNO) of 14.023. The TPR ([1]; Patient 6, iNO) was 6.4559, the mPAP ([1]; Patient 6, iNO) was 40.672 and the “PCWP compared to baseline” value ([1]; after inhalation of NO, in some instances) was “increased”. The HR ([2]; Patient 1, 40 ppm inhaled NO) was 84, the “Systemic DBP” value ([2]; Patient 1, 40 ppm inhaled NO) was 66 and the “Systemic SBP” value ([2]; Patient 1, 40 ppm inhaled NO) was 107. The “Systemic mBP” value ([2]; Patient 1, 40 ppm inhaled NO) was 79.68, the HR ([2]; Patient 2, 40 ppm inhaled NO) was 71 and the “Systemic DBP” value ([2]; Patient 2, 40 ppm inhaled NO) was 69. The “Systemic SBP” value ([2]; Patient 2, 40 ppm inhaled NO) was 124, the “Systemic mBP” value ([2]; Patient 2, 40 ppm inhaled NO) was 87.34 and the HR ([2]; Patient 3, 40 ppm inhaled NO) was 75. For the same substance, the “Systemic DBP” value ([2]; Patient 3, 40 ppm inhaled NO) was 57, the “Systemic SBP” value ([2]; Patient 3, 40 ppm inhaled NO) was 108 and the “Systemic mBP” value ([2]; Patient 3, 40 ppm inhaled NO) was 74.01. The HR ([2]; Patient 4, 40 ppm inhaled NO) was 66, the “Systemic DBP” value ([2]; Patient 4, 40 ppm inhaled NO) was 76 and the “Systemic SBP” value ([2]; Patient 4, 40 ppm inhaled NO) was 143. For the same substance, the “Systemic mBP” value ([2]; Patient 4, 40 ppm inhaled NO) was 98.35, the HR ([2]; Patient 5, 40 ppm inhaled NO) was 56 and the “Systemic DBP” value ([2]; Patient 5, 40 ppm inhaled NO) was 51. The “Systemic SBP” value ([2]; Patient 5, 40 ppm inhaled NO) was 97, the “Systemic mBP” value ([2]; Patient 5, 40 ppm inhaled NO) was 65.34 and the HR ([2]; Patient 6, iNO) was 100. For the same substance, the “Systemic DBP” value ([2]; Patient 6, iNO) was 77, the “Systemic SBP” value ([2]; Patient 6, iNO) was 147 and the “Systemic mBP” value ([2]; Patient 6, iNO) was 100.346. The “Syst O2sat” value ([3]; Patient 1, 40 ppm inhaled NO) was 100, the “Syst O2sat” value ([3]; Patient 2, 40 ppm inhaled NO) was 100 and the “Syst O2sat” value ([3]; Patient 3, 40 ppm inhaled NO) was 99. For the same substance, the “Syst O2sat” value ([3]; Patient 4, 40 ppm inhaled NO) was 100, the “Syst O2sat” value ([3]; Patient 5, 40 ppm inhaled NO) was 100 and the “Syst O2sat” value ([3]; Patient 6, iNO) was 100.
